For assay [1], the target named is PBK (Homo sapiens (Human), UniProt Q96KB5). In words: Kinase assay (IMAP fluorescence polarization, FITC-labeled histone H3 peptide). The format is biochemical. The procedure, abridged: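 PBK at 0.8 ng/µL with 100 nM FITC-histone H3 peptide and 50 µM ATP in HEPES pH 7.4, 0.3 mM MgCl2, 2 mM DTT, reacted 1 h at room temperature. Phosphorylation read by IMAP fluorescence polarization; IC50 from four-parameter fit.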

Assay [2] relates to A549 cells. Description: Cell-based assay, cellular growth (Cell Counting Kit-8, 72 hours). The note with it: Homo sapiens. In a few lines:
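Cells were seeded in 96-well plates and exposed to candidate inhibitors. Cellular growth was then determined with the colorimetric kit, and IC50 values were calculated from the growth data.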

The test system of assay [3] is BT-549 cells. Described as above. The note with it: Homo sapiens, BT549 cells. How it is done: (§1) 100 micro-L of cell suspension was seeded onto 96-well microtiter plate (ViewPlate-96FTC, PerkinElmer). […] Cellular growth was determined using Cell Counting Kit-8 (DOJINDO) at 72 hours after the exposure of the candidate inhibitors. […] Accurate IC50 values were calculated as described previously.

Assay [4] has as its system T47D cells. Described as above. As to conditions: Homo sapiens. How it is done: as §1
Assay [5] deals with HT-1197 cells. Description: Cell-based assay, cellular growth (Cell Counting Kit-8, 72 hours), PBK-negative control cells. As to conditions: Homo sapiens. How it is done:
as §1

The mark [6] stands for this setting: PBK 0.8 ng/micro-L, 50 micro-M ATP, 100 nM FITC-labeled histone H3 peptide, room temperature 1 hour.

Counter-ions that a name gives are not always drawn. Like-named read-outs stand apart in the source and are kept apart here.

Sequence of PBK (Q96KB5 whole entry): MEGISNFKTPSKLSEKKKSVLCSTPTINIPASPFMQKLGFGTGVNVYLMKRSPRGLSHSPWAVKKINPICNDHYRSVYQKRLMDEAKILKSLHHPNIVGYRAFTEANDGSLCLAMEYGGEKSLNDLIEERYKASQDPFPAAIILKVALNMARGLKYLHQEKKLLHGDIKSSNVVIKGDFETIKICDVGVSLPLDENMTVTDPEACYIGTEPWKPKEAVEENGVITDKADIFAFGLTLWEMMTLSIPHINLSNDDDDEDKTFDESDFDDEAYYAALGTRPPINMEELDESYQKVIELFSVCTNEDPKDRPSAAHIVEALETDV

With `CNC[C@H](C)c1ccc(-c2c(O)cc(C)c3[nH]c(=O)c4sccc4c23)cc1F` [Compound 1315, (R)-9-(3-fluoro-4-(1-(methylamino)propan-2-yl)phenyl)-8-hydroxy-6-methylthieno[2,3-c]quinolin-4(5H)-one hydrochloride], the half-maximal inhibitory concentration (IC50) in assay [1] is 0.0081 µM; in assay [2] (A549, 72 h), 0.034 µM; in assay [3], 0.024 µM; in assay [4] (T47D, 72 h) it was 0.041 µM; in assay [5] (HT1197, 72 h), 0.1 µM.
The matching figures for `COc1cc(C)c2[nH]c(=O)c3sccc3c2c1-c1ccc([C@@H](C)CN)c(F)c1` [Compound 1317, (R)-9-(4-(1-aminopropan-2-yl)-3-fluorophenyl)-8-methoxy-6-methylthieno[2,3-c]quinolin-4(5H)-one hydrochloride]: 0.022 µM, 0.042 µM, 0.036 µM, 0.072 µM and 0.1 µM.
For `CNC[C@H](C)c1ccc(-c2c(O)ccc3[nH]c(=O)c4sccc4c23)cc1` [Compound 1187, (R)-8-hydroxy-9-(4-(1-(methylamino)propan-2-yl)phenyl)thieno[2,3-c]quinolin-4(5H)-one hydrochloride], the concentration for half-maximal inhibition (IC50) was 0.0013 µM in assay [1] (setting [6]); 0.2 µM in assay [2] (A549, 72 h); 0.19 µM in assay [3]; 0.19 µM in assay [4] (T47D, 72 h); 0.32 µM in assay [5] (HT1197, 72 h).
Turning to `COc1ccc2[nH]c(=O)c3sccc3c2c1-c1ccc(C(CN)C2CCCC2)cc1` (centres unmarked) [Compound 1239, 9-(4-(2-amino-1-cyclopentylethyl)phenyl)-8-methoxythieno[2,3-c]quinolin-4(5H)-one hydrochloride], the 50% inhibitory concentration (IC50) came to 0.023 µM in assay [1]; 0.89 µM in assay [2] (A549, 72 h); 1.5 µM in assay [3]; 1.1 µM in assay [4] (T47D, 72 h); 1.7 µM in assay [5] (HT1197, 72 h).
`NCC(c1ccc(-c2c(O)ccc3[nH]c(=O)c4sccc4c23)cc1)C1CCCC1` (centres unmarked) [Compound 1236, 9-(4-(2-amino-1-cyclopentylethyl)phenyl)-8-hydroxythieno[2,3-c]quinolin-4(5H)-one]: the half-maximal inhibitory concentration (IC50) is 0.0046 µM in assay [1] (setting [6]); 0.46 µM in assay [2] (A549, 72 h); 0.51 µM in assay [3]; 0.8 µM in assay [4] (T47D, 72 h); 1 µM in assay [5] (HT1197, 72 h).
Turning to `CNCCc1ccc(-c2c(O)cc(C)c3[nH]c(=O)c4sccc4c23)cc1` [Compound 1364, 8-hydroxy-6-methyl-9-(4-(2-(methylamino)ethyl)phenyl)thieno[2,3-c]quinolin-4(5H)-one hydrochloride], the IC50 amounted to 0.055 µM in assay [1] (setting [6]); 0.27 µM in assay [2] (A549, 72 h); 0.26 µM in assay [3]; 0.3 µM in assay [4] (T47D, 72 h); 0.66 µM in assay [5] (HT1197, 72 h).
Turning to `C[C@@H](N)c1ccc(-c2c(O)cc(Cl)c3[nH]c(=O)c4sccc4c23)cc1` [Compound 1081, (R)-9-(4-(1-aminoethyl)phenyl)-6-chloro-8-hydroxythieno[2,3-c]quinolin-4(5H)-one hydrochloride], the IC50 in assay [1] came to 0.0086 µM; in assay [2] (A549, 72 h), 0.1 µM; in assay [3] it was 0.086 µM; in assay [4] (T47D, 72 h), 0.17 µM; in assay [5] (HT1197, 72 h), 0.39 µM.
The matching figures for `COc1ccc2[nH]c(=O)c3sccc3c2c1-c1ccc(C(CN)C(C)C)cc1` (centres unmarked) [Compound 1253, 9-(4-(1-amino-3-methylbutan-2-yl)phenyl)-8-methoxythieno[2,3-c]quinolin-4(5H)-one hydrochloride]: 0.0041 µM, 0.76 µM, 1.5 µM, 0.87 µM and 1.9 µM.
On to `COc1ccc2[nH]c(=O)c3sccc3c2c1-c1ccc([C@@H](C)CN)cc1` [Compound 1161, (R)-9-(4-(1-aminopropan-2-yl)phenyl)-8-methoxythieno[2,3-c]quinolin-4(5H)-one hydrochloride], for which the half-maximal inhibitory concentration (IC50) in assay [1] (setting [6]) was determined as 0.002 µM; in assay [2] (A549, 72 h), 0.27 µM; in assay [3] it was 0.22 µM; in assay [4] (T47D, 72 h) it was 0.45 µM; in assay [5] (HT1197, 72 h), 0.82 µM.
The matching figures for `C[C@@H](CN(C)C)c1ccc(-c2c(O)cc(Cl)c3[nH]c(=O)c4sccc4c23)cc1` [Compound 1347, (R)-6-chloro-9-(4-(1-(dimethylamino)propan-2-yl)phenyl)-8-hydroxythieno [2,3-c]quinolin-4(5H)-one hydrochloride]: 0.043 µM, 0.1 µM, 0.11 µM, 0.26 µM and 0.26 µM.
For the compound `COc1ccc2[nH]c(=O)c3sccc3c2c1-c1ccc(C(C)CN)c(F)c1` (centres unmarked) [Compound 1179, 9-(4-(1-aminopropan-2-yl)-3-fluorophenyl)-8-methoxythieno[2,3-c]quinolin-4(5H)-one hydrochloride], the IC50 in assay [1] (setting [6]) came to 0.003 µM; in assay [2] (A549, 72 h) it was 0.63 µM; in assay [3], 0.45 µM; in assay [4] (T47D, 72 h), 0.86 µM; in assay [5] (HT1197, 72 h), 1.9 µM.
The matching figures for `C[C@@H](CN)c1ccc(-c2c(O)cc(Cl)c3[nH]c(=O)c4sccc4c23)cc1` [Compound 1166, (R)-9-(4-(1-aminopropan-2-yl)phenyl)-6-chloro-8-hydroxythieno[2,3-c]quinolin-4(5H)-one hydrochloride]: 0.0044 µM, 0.017 µM, 0.013 µM, 0.026 µM and 0.12 µM.
For `Cc1cc(O)c(-c2ccc([C@@H](C)CN)c(F)c2)c2c1[nH]c(=O)c1sccc12` [Compound 1318, (R)-9-(4-(1-aminopropan-2-yl)-3-fluorophenyl)-8-hydroxy-6-methylthieno[2,3-c]quinolin-4(5H)-one hydrochloride], the concentration for half-maximal inhibition (IC50) is 0.0036 µM in assay [1] (PBK 0.8 ng/micro-L, 50 micro-M ATP, 100 nM FITC-labeled histone H3 peptide, room temperature 1 hour, hydrochloride); 0.015 µM in assay [2] (A549, 72 h); 0.0084 µM in assay [3]; 0.015 µM in assay [4] (T47D, 72 h); 0.063 µM in assay [5] (HT1197, 72 h).
For the compound `COc1ccc2[nH]c(=O)c3sccc3c2c1-c1ccc(S(=O)(=O)NCCCl)cc1` [Compound 1139, N-(2-chloroethyl)-4-(8-methoxy-4-oxo-4,5-dihydrothieno[2,3-c]quinolin-9-yl)benzenesulfonamide], the IC50 turned out to be 0.07 µM in assay [1] (setting [6]); 0.023 µM in assay [2]; 0.017 µM in assay [3]; 0.2 µM in assay [4]; 14 µM in assay [5] (HT1197 cells (PBK-negative control)).
On to `Cc1cc(O)c(-c2ccc([C@H](C)CN)c(F)c2)c2c1[nH]c(=O)c1sccc12` [Compound 1303, (S)-9-(4-(1-aminopropan-2-yl)-3-fluorophenyl)-8-hydroxy-6-methylthieno[2,3-c]quinolin-4(5H)-one], for which the IC50 in assay [1] (setting [6]) was determined as 0.014 µM; in assay [2] (A549, 72 h) it was 0.092 µM; in assay [3] it was 0.081 µM; in assay [4] (T47D, 72 h) it was 0.13 µM; in assay [5] (HT1197, 72 h), 0.51 µM.
The matching figures for `CNCC(C)c1ccc(-c2c(O)cc(C)c3[nH]c(=O)c4sccc4c23)cc1F` (centres unmarked) [Compound 1293, 9-(3-fluoro-4-(1-(methylamino)propan-2-yl)phenyl)-8-hydroxy-6-methylthieno[2,3-c]quinolin-4(5H)-one]: 0.0089 µM, 0.035 µM, 0.032 µM, 0.052 µM and 0.19 µM.

(Values after patent US8962648B2, “Tricyclic compounds and PBK inhibitors containing the same” (OncoTherapy Science, Inc., priority 2010, dated 2015).)
